Assays:
Type in all cases: in vivo
CYPERUS IRIA = assay: Preemergence weed control under flooded paddy conditions, CYPIR (Rice Flatsedge); settings: for Herbicidal effect rating, CYPIR: preemergence, 3-4 weeks after treatment; for CYPIR: pre-weed
In short: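 This preemergence test mimicked flooded paddy conditions: rice flatsedge propagules were sown in the upper 0.5 cm of silt loam in undrained 32 oz. containers (10.5 cm diameter), with water held 1.5 to 3 cm over the soil. After normal greenhouse care, plants were scored 0-9 for stand, vigor, malformation, size, chlorosis and appearance relative to controls.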

GALIUM APARINE [1] = assay: Postemergence herbicidal evaluation, GALAP (Galium); set-up: key to GALAP rating / Herbicidal effect rating, GALAP / GALAP: 0-9 visual rating scale vs untreated control
In short: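 In this postemergence greenhouse test, two-week-old Galium aparine seedlings grown in jiffy flats received a 40 psi spray of compound in acetone/water (50/50) with 0.5% TWEEN®20 surfactant. After four to five weeks, stand, vigor, malformation, size, chlorosis and overall appearance were compared with untreated controls on a 0-9 scale, averaging multiple tests.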

[2] = tested on: GLYCINE MAX(L) MERR. CV. WILLIAMS; assay: Preemergence herbicidal evaluation, GLXMAW (Soybean, Williams); settings: for GLXMAW herbicidal rating: rated four to five weeks after treatment
In short: (§1)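 Preemergence, greenhouse: seed + potting soil sown on ~1 inch soil in cups; aqueous acetone spray, ~0.125–0.50 kg/ha equivalent; rated 0-9 vs control at 4–5 wk.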

[…], PRESL. = Preemergence weed control under flooded paddy conditions, MOOVA (Monochoria); settings: for Herbicidal effect rating, MOOVA: preemergence, 3-4 weeks after treatment; for MOOVA: pre-weed
In short: (§2)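 Visual 0-9 rating against untreated control, covering stand, vigor, malformation, size and chlorosis, scored three to four weeks post-treatment in a greenhouse. Application was into 1.5-3 cm flood water over silt loam sown at 0.5 cm. The 50/50 v/v aqueous/acetone doses were about 0.5, 0.25, 0.125 and 0.063 kg/ha.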

ZEA MAYS L. = assay: Preemergence herbicidal evaluation, ZEAMX (Corn, Field); settings: for ZEAMX herbicidal rating: rated four to five weeks after treatment
In short: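 Preemergence herbicidal activity on field corn: seeds in potting soil were sown atop roughly one inch of soil in separate pint cups, treated, and grown under standard greenhouse care. Four to five weeks post-treatment, stand, vigor, malformation, size, chlorosis and overall appearance were compared with a control and scored 0-9.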

CASSIA OBTUSIFOLIA, L. = assay: Preemergence herbicidal evaluation, CASOB (Sicklepod); settings: for CASOB herbicidal rating: rated four to five weeks after treatment
In short: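 Preemergence herbicidal activity against sicklepod was assessed by planting seed mixed with potting soil atop about one inch of soil in pint cups. After treatment the cups were watered and handled per standard greenhouse practice. Tests ended four to five weeks later, with plant stand, vigor, malformation, size, chlorosis and overall appearance scored 0-9 relative to a control.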

SAGITTARIA PYGMAEA, L. = assay: Preemergence weed control under flooded paddy conditions, SAGPY (Arrowhead (Pygmaea)); settings: for Herbicidal effect rating, SAGPY: preemergence, 3-4 weeks after treatment; for SAGPY: pre-weed
In short: as §2

[3] = tested on: CYPERUS SEROTINUS, ROTTB.; assay: Preemergence weed control under flooded paddy conditions, CYPSE (Flatsedge); settings: for Herbicidal effect rating, CYPSE: preemergence, 3-4 weeks after treatment; for CYPSE: pre-weed
In short: as §2

IPOMOEA SPP. = assay: Preemergence herbicidal evaluation, IPOSS (Morningglory spp.); settings: for IPOSS herbicidal rating: rated four to five weeks after treatment
In short: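 This preemergence greenhouse test scored herbicidal effect on morningglory planted in pint cups, with seed mixed into potting soil and placed over about one inch of soil. After treatment the cups were watered and kept under conventional care. At four to five weeks, plant stand, vigor, malformation, size, chlorosis and overall appearance were compared with a control and rated 0-9.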

[4] = tested on: ORYZA SATIVA, L. TEBONNET; assay: Postemergence herbicidal evaluation, ORYSAT (Rice, Tebonnet); set-up: key: 0-9 visual rating scale vs untreated control
In short: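 This postemergence greenhouse test used Oryza sativa cv. Tebonnet seedlings grown about two weeks in jiffy flats. Test material in 50/50 acetone/water with 0.5% TWEEN®20 surfactant was applied through a spray nozzle at 40 psi. Four to five weeks later, stand, vigor, malformation, size, chlorosis and overall appearance were rated 0-9 relative to a control, and repeat tests were averaged.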

[5] = tested on: GLYCINE MAX(L) MERR. CV. WILLIAMS; assay: Postemergence herbicidal evaluation, GLXMAW (Soybean, Williams); set-up: key to GLXMAW rating / Herbicidal effect rating, GLXMAW / GLXMAW: 0-9 visual rating scale vs untreated control
In short: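 Herbicidal injury to Williams soybean was assessed after a postemergence spray of two-week-old seedlings grown in jiffy flats. Compounds were dispersed in an acetone/water (50/50) mixture with 0.5% TWEEN®20 surfactant and applied at 40 psi. After four to five weeks in the greenhouse, stand, vigor, malformation, size and chlorosis were compared against a control on a 0-9 scale, and results from replicate tests were averaged.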

[6] = tested on: ECHINOCHLOA ORYZOIDES (ARD.)FRITSCH; assay: Preemergence weed control under flooded paddy conditions, ECHORC (Watergrass (Calif.)); settings: for Herbicidal effect rating, ECHORC: preemergence, 3-4 weeks after treatment; for ECHORC: pre-weed
In short: as §2

GALIUM APARINE [7] = assay: Preemergence herbicidal evaluation, GALAP (Galium); settings: for GALAP herbicidal rating: rated four to five weeks after treatment
In short: as §1

Substance: Methyl 3-{2-[(2-chloro-α,α,α,-trifluoro-p-tolyl)oxy]phenyl}tetrahydro-5-methyl-2,4,6-trioxo-s-triazine-1(2H)-acetate [Compound 28]
- Herbicidal effect rating, CYPIR (CYPERUS IRIA; 0.063 kg/ha): 0.0
- Herbicidal effect rating, CYPIR (CYPERUS IRIA; 0.125 kg/ha): 0.0
- Herbicidal effect rating, CYPIR (CYPERUS IRIA; 0.250 kg/ha): 0.0
- Herbicidal effect rating, CYPIR (CYPERUS IRIA; 0.500 kg/ha): 4.0
- CYPIR (CYPERUS IRIA; Rate 0.250 kg/ha): 0.0
- CYPIR (CYPERUS IRIA; Rate 0.500 kg/ha): 6.5
- CYPIR (CYPERUS IRIA; Rate 1.000 kg/ha): 7.0
- GALAP (GALIUM APARINE [1]; Rate 0.063 kg/ha): 6.0
- GALAP (GALIUM APARINE [1]; Rate 0.125 kg/ha): 4.0
- GALAP rating (GALIUM APARINE [1]; Rate 0.125 kg/ha): 4.0
- GALAP (GALIUM APARINE [1]; Rate 0.250 kg/ha): 5.0
- GALAP rating (GALIUM APARINE [1]; Rate 0.250 kg/ha): 5.0
- GALAP (GALIUM APARINE [1]; Rate 0.500 kg/ha): 4.5
- GALAP rating (GALIUM APARINE [1]; Rate 0.500 kg/ha): 4.5
- GLXMAW ([2]; Rate 0.125 kg/ha): 0.0
- GLXMAW herbicidal rating ([2]; Rate 0.125 kg/ha): 0.0
- GLXMAW ([2]; Rate 0.250 kg/ha): 1.0
- GLXMAW herbicidal rating ([2]; Rate 0.250 kg/ha): 1.0
- GLXMAW ([2]; Rate 1.000 kg/ha): 0.0
- Herbicidal effect rating, MOOVA ([…], PRESL.; 0.063 kg/ha): 0.0
- Herbicidal effect rating, MOOVA ([…], PRESL.; 0.125 kg/ha): 0.0
- Herbicidal effect rating, MOOVA ([…], PRESL.; 0.250 kg/ha): 2.0
- Herbicidal effect rating, MOOVA ([…], PRESL.; 0.500 kg/ha): 9.0
- MOOVA ([…], PRESL.; Rate 0.250 kg/ha): 2.0
- MOOVA ([…], PRESL.; Rate 0.500 kg/ha): 9.0
- MOOVA ([…], PRESL.; Rate 1.000 kg/ha): 9.0
- ZEAMX (ZEA MAYS L.; Rate 0.125 kg/ha): 0.0
- ZEAMX herbicidal rating (ZEA MAYS L.; Rate 0.125 kg/ha): 0.0
- ZEAMX (ZEA MAYS L.; Rate 0.250 kg/ha): 0.0
- ZEAMX herbicidal rating (ZEA MAYS L.; Rate 0.250 kg/ha): 0.0
- ZEAMX (ZEA MAYS L.; Rate 0.500 kg/ha): 1.0
- ZEAMX herbicidal rating (ZEA MAYS L.; Rate 0.500 kg/ha): 1.0
- ZEAMX (ZEA MAYS L.; Rate 1.000 kg/ha): 1.0
- CASOB (CASSIA OBTUSIFOLIA, L.; Rate 0.125 kg/ha): 0.0
- CASOB herbicidal rating (CASSIA OBTUSIFOLIA, L.; Rate 0.125 kg/ha): 0.0
- CASOB (CASSIA OBTUSIFOLIA, L.; Rate 0.250 kg/ha): 2.0
- CASOB herbicidal rating (CASSIA OBTUSIFOLIA, L.; Rate 0.250 kg/ha): 2.0
- CASOB (CASSIA OBTUSIFOLIA, L.; Rate 0.500 kg/ha): 1.5
- CASOB herbicidal rating (CASSIA OBTUSIFOLIA, L.; Rate 0.500 kg/ha): 3.0
- CASOB (CASSIA OBTUSIFOLIA, L.; Rate 1.000 kg/ha): 3.0
- Herbicidal effect rating, SAGPY (SAGITTARIA PYGMAEA, L.; 0.063 kg/ha): 0.0
- Herbicidal effect rating, SAGPY (SAGITTARIA PYGMAEA, L.; 0.125 kg/ha): 0.0
- Herbicidal effect rating, SAGPY (SAGITTARIA PYGMAEA, L.; 0.250 kg/ha): 0.0
- Herbicidal effect rating, SAGPY (SAGITTARIA PYGMAEA, L.; 0.500 kg/ha): 0.0
- SAGPY (SAGITTARIA PYGMAEA, L.; Rate 0.250 kg/ha): 0.0
- SAGPY (SAGITTARIA PYGMAEA, L.; Rate 0.500 kg/ha): 0.0
- SAGPY (SAGITTARIA PYGMAEA, L.; Rate 1.000 kg/ha): 0.0
- Herbicidal effect rating, CYPSE ([3]; 0.063 kg/ha): 0.0
- Herbicidal effect rating, CYPSE ([3]; 0.125 kg/ha): 0.0
- Herbicidal effect rating, CYPSE ([3]; 0.250 kg/ha): 0.0
- Herbicidal effect rating, CYPSE ([3]; 0.500 kg/ha): 0.0
- CYPSE ([3]; Rate 0.250 kg/ha): 0.0
- CYPSE ([3]; Rate 0.500 kg/ha): 0.0
- CYPSE ([3]; Rate 1.000 kg/ha): 0.0
- IPOSS (IPOMOEA SPP.; Rate 0.125 kg/ha): 2.0
- IPOSS herbicidal rating (IPOMOEA SPP.; Rate 0.125 kg/ha): 2.0
- IPOSS (IPOMOEA SPP.; Rate 0.250 kg/ha): 3.0
- IPOSS herbicidal rating (IPOMOEA SPP.; Rate 0.250 kg/ha): 3.0
- IPOSS (IPOMOEA SPP.; Rate 0.500 kg/ha): 6.0
- IPOSS herbicidal rating (IPOMOEA SPP.; Rate 0.500 kg/ha): 6.0
- IPOSS (IPOMOEA SPP.; Rate 1.000 kg/ha): 7.0
- ORYSAT ([4]; Rate 0.063 kg/ha): 1.5
- ORYSAT ([4]; Rate 0.125 kg/ha): 2.0
- ORYSAT rating ([4]; Rate 0.125 kg/ha): 2.0
- ORYSAT ([4]; Rate 0.250 kg/ha): 2.5
- ORYSAT rating ([4]; Rate 0.250 kg/ha): 2.5
- ORYSAT ([4]; Rate 0.500 kg/ha): 3.0
- ORYSAT rating ([4]; Rate 0.500 kg/ha): 3.0
- GLXMAW ([5]; Rate 0.063 kg/ha): 2.5
- GLXMAW ([5]; Rate 0.125 kg/ha): 3.5
- GLXMAW rating ([5]; Rate 0.125 kg/ha): 3.5
- GLXMAW ([5]; Rate 0.250 kg/ha): 4.5
- GLXMAW rating ([5]; Rate 0.250 kg/ha): 4.5
- GLXMAW ([5]; Rate 0.500 kg/ha): 5.0
- GLXMAW rating ([5]; Rate 0.500 kg/ha): 5.0
- Herbicidal effect rating, ECHORC ([6]; 0.063 kg/ha): 0.0
- Herbicidal effect rating, ECHORC ([6]; 0.125 kg/ha): 0.0
- Herbicidal effect rating, ECHORC ([6]; 0.250 kg/ha): 2.0
- Herbicidal effect rating, ECHORC ([6]; 0.500 kg/ha): 8.0
- ECHORC ([6]; Rate 0.250 kg/ha): 2.0
- ECHORC ([6]; Rate 0.500 kg/ha): 8.5
- ECHORC ([6]; Rate 1.000 kg/ha): 7.0
- GALAP (GALIUM APARINE [7]; Rate 0.125 kg/ha): 3.0
- GALAP herbicidal rating (GALIUM APARINE [7]; Rate 0.125 kg/ha): 3.0
- GALAP (GALIUM APARINE [7]; Rate 0.250 kg/ha): 4.0
- GALAP herbicidal rating (GALIUM APARINE [7]; Rate 0.250 kg/ha): 4.0
- GALAP (GALIUM APARINE [7]; Rate 0.500 kg/ha): 5.5
- GALAP herbicidal rating (GALIUM APARINE [7]; Rate 0.500 kg/ha): 6.0
- GALAP (GALIUM APARINE [7]; Rate 1.000 kg/ha): 5.0
